Data reported in EP1981504B1, “THIADIAZOLE DERIVATIVES FOR THE TREATMENT OF NEURO DEGENERATIVE DISEASES” (NV reMYND, priority 2006, dated 2007).
Values after ≈ are worked out from the molar mass of the structure shown.

Columns and labels:
[1] = tested on: M17-SYNwt cells; assay: α-synuclein cytotoxicity assay (LDH leakage from paraquat-treated α-synuclein over-expressing neuroblastoma cells); type: cell-based, human; details: for EC50: Homo sapiens, Neuroblastoma cell; for EC50 / %I / EC50 (µg/mL): paraquat 32 mM, 40 hours, LDH release; for EC50 / EC50 (µg/mL): 10 point curves in duplicate; for %I: percent inhibition of synuclein cytotoxicity at most effective concentration of test compound, relative to untreated paraquat cells
Summary of the method: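 M17 neuroblastoma cells over-expressing wild-type α-synuclein were challenged with paraquat, and cytotoxicity was read as LDH release. Protection was expressed as percent reduction of paraquat-induced LDH release relative to untreated paraquat cells and control cells. Actives were retested in 10-point duplicate dose responses.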

[2] = tested on: dopaminergic substantia nigra neurons; assay: in vivo inhibition of paraquat-triggered loss of substantia nigra neurons (tyrosine hydroxylase immunohistochemistry); details: mice, paraquat intraperitoneal not higher than 8 mg/kg/day, compound not higher than 20 mg/kg body weight/day, 8 weeks treatment, versus vehicle
Protocol: In order to model neuronal loss in the substantia nigra region of the brain, mice were treated with paraquat (intraperitoneal) at a dose not higher than 8 mg/kg/day for a continuous period of 15-100 days. These mice were also chronically co-treated during that period with: • compound 60 (1-[4-methoxyphenylsulfonyl]-4-[3-(4-methylbenzyl)-1,2,4-thiadiazol-5-yl]-2-methylpiperazine), or • compound 32 (1-[4-methoxyphenylsulfonyl]-4-[3-(4-fluorobenzyl)-1,2,4-thiadiazol-5-yl]piperazine), or • compound 53 (1-[4-methoxyphenylsulfonyl]-4-[3-(3-methoxy-benzyl)-1,2,4-thiadiazol-5-yl]piperazine), each being administered at a dose not higher than 20 mg/kg body weight/day), or by vehicle only (no active compound). Mice treatment by means of vehicle or a compound of the invention started 2 days before administration of paraquat.
At the end of the treatment period, mice were sacrificed and the corresponding brains were used for immunohistochemical analysis. […] Using antibodies raised against tyrosin hydroxylase (anti-tyrosin hydroxylase), tyrosine hydroxylase containing neurons in the brains were detected.
Three groups of mice were treated with either paraquat and compound 53 (group 3; n=6), or paraquat and vehicle of compound 53 (group 2; n=4), or vehicle paraquat and vehicle of compound 53 (group 1; n=3). […] Per mouse, the median %TH-positive areas (of the substantia nigra regions) was determined. […]

Compound: COc1ccc(S(=O)(=O)N2CCN(c3nc(Cc4cccc(OC)c4)ns3)CC2)cc1 [Compound 53, 1-[4-methoxyphenylsulfonyl]-4-[3-(3-methoxybenzyl)-1,2,4-thiadiazol-5-yl]piperazine]
- EC50 [1]: 0.00066 µg/mL (≈ 0.00143 µM)
- %I [1]: 83%
- TH-positive area of the substantia nigra [2]: protects dopaminergic substantia nigra neurons against paraquat-triggered degeneration

Compound: Cc1ccc(Cc2nsc(N3CCN(S(=O)(=O)c4ccc(Cl)cc4)CC3)n2)cc1 [Compound 66, 1-[4-chlorophenylsulfonyl]-4-[3-(4-methylbenzyl)-1,2,4-thiadiazol-5-yl]piperazine]
- %I [1]: 81%

Compound: CCCCCCc1ccc(C(=O)N2CCN(c3nc(Cc4ccc(F)cc4)ns3)CC2)cc1 [Compound 121, 1-(4-hexylbenzoyl)-4-[3-(4-fluorobenzyl)-1,2,4-thiadiazol-5-yl]piperazine]
- EC50 [1]: 0.12 µg/mL (≈ 0.257 µM)
- %I [1]: 64%

Compound: Cc1ccc(Cc2nsc(N3CCN(C(=O)c4ccc(F)cc4)CC3)n2)cc1 [Compound 160, 1-(4-fluorobenzoyl)-4-[3-(4-methylbenzyl)-1,2,4-thiadiazol-5-yl]piperazine]
- EC50 [1]: 2.87 µg/mL (≈ 7.24 µM)
- %I [1]: 88%

Compound: 1-[3-trifluorophenylsulfonyl]-4-[3-(4-fluorobenzyl)-1,2,4-thiadiazol-5-yl]-2-methylpiperazine [Compound 46]
- EC50 (µg/mL) [1]: 1,34 µg/mL
- %I [1]: 64%

Compound: Cc1ccc(Cc2nsc(N3CCN(C(=O)c4ccc(Br)cc4)CC3)n2)cc1 [Compound 164, 1-(4-bromobenzoyl)-4-[3-(4-methylbenzyl)-1,2,4-thiadiazol-5-yl]piperazine]
- EC50 [1]: 3.86 µg/mL (≈ 8.44 µM)
- %I [1]: 60%

Compound: CC1CN(c2nc(Cc3ccc(F)cc3)ns2)CCN1C(=O)c1cccc(Cl)c1 (centres unmarked) [Compound 122, 1-(3-chlorobenzoyl)-4-[3-(4-fluorobenzyl)-1,2,4-thiadiazol-5-yl]-2-methylpiperazine]
- EC50 [1]: 0.14 µg/mL (≈ 0.325 µM)
- %I [1]: 92%

Compound: Cc1ccc(Cc2nsc(N3CCN(C(=O)c4ccccc4F)C(C)C3)n2)cc1 (centres unmarked) [Compound 149, 1-(2-fluorobenzoyl)-4-[3-(4-methylbenzyl)-1,2,4-thiadiazol-5-yl]-2-methylpiperazine]
- EC50 [1]: 0.98 µg/mL (≈ 2.39 µM)
- %I [1]: 105%

Compound: 2-phenyl-N-{2-[4-[3-(4-fluorobenzyl)-1,2,4-thiadiazol-5-yl]piperazin-1-yl]ethyl}butanamide [Compound 111]
- LDH activity in the medium ([1]; Figure 2, dose response in paraquat-treated M17-SYNwt cells): able, in a dose-dependent manner, to reduce LDH activity in the medium
- EC50 (µg/mL) [1]: 1,79 µg/mL
- %I [1]: 79%

Compound: CCCCc1ccc(C(=O)N2CCN(c3nc(Cc4ccc(C)cc4)ns3)CC2)cc1 [Compound 182, 1-(4-butylbenzoyl)-4-[3-(4-methylbenzyl)-1,2,4-thiadiazol-5-yl]piperazine]
- %I [1]: 57%

Compound: CCCCCc1ccc(C(=O)N2CCN(c3nc(Cc4ccc(C)cc4)ns3)CC2C)cc1 (centres unmarked) [Compound 134, 1-(4-pentylbenzoyl)-4-[3-(4-methylbenzyl)-1,2,4-thiadiazol-5-yl]-2-methylpiperazine]
- EC50 [1]: 0.3 µg/mL (≈ 0.648 µM)
- %I [1]: 75%

Compound: CC1CN(c2nc(Cc3ccc(F)cc3)ns2)CCN1C(=O)c1ccc(Br)cc1 (centres unmarked) [Compound 135, 1-(4-bromobenzoyl)-4-[3-(4-fluorobenzyl)-1,2,4-thiadiazol-5-yl]-2-methylpiperazine]
- EC50 [1]: 0.31 µg/mL (≈ 0.652 µM)
- %I [1]: 73%

Compound: Cc1ccc(Cc2nsc(N3CCN(C(=O)c4cccc(F)c4)C(C)C3)n2)cc1 (centres unmarked) [Compound 156, 1-(3-fluorobenzoyl)-4-[3-(4-methylbenzyl)-1,2,4-thiadiazol-5-yl]-2-methylpiperazine]
- EC50 [1]: 1.67 µg/mL (≈ 4.07 µM)
- %I [1]: 86%

Compound: Cc1ccc(Cc2nsc(N3CCN(S(=O)(=O)c4c(C)cc(C)cc4C)CC3)n2)cc1 [Compound 37, 1-[2,4,6-trimethylphenylsulfonyl]-4-[3-(4-methylbenzyl)-1,2,4-thiadiazol-5-yl]piperazine]
- EC50 [1]: 0.0731 µg/mL (≈ 0.16 µM)
- %I [1]: 48%

Compound: COc1ccc(S(=O)(=O)N2CCN(c3nc(Cc4cccc(OC)c4)ns3)CC2C)cc1 (centres unmarked) [Compound 208, 1-[4-methoxyphenylsulfonyl]-4-[3-(3-methoxybenzyl)-1,2,4-thia-diazol-5-yl]-2-methyl-piperazine]
- EC50 [1]: 0.0034 µg/mL (≈ 0.00716 µM)
- %I [1]: 92%

Compound: Cc1ccc(Cc2nsc(N3CCN(S(=O)(=O)c4c(C)cc(C)cc4C)C(C)C3)n2)cc1 (centres unmarked) [Compound 45, 1-[2,4,6-trimethylphenylsulfonyl]-4-[3-(4-methylbenzyl)-1,2,4-thiadiazol-5-yl]-2-methylpiperazine]
- EC50 [1]: 1.2 µg/mL (≈ 2.55 µM)
- %I [1]: 56%

Compound: COc1cccc(Cc2nsc(N3CCN(C(=O)c4ccc(Br)cc4)C(C)C3)n2)c1 (centres unmarked) [Compound 170, 1-(4-bromobenzoyl)-4-[3-(3-methoxybenzyl)-1,2,4-thiadiazol-5-yl]-2-methylpiperazine]
- %I [1]: 89%

Compound: Cc1ccc(Cc2nsc(N3CCN(S(=O)(=O)c4ccc(C(C)(C)C)cc4)C(C)C3)n2)cc1 (centres unmarked) [Compound 42, 1-[4-tert-butylphenylsulfonyl]-4-[3-(4-methylbenzyl)-1,2,4-thiadiazol-5-yl]-2-methylpiperazine]
- EC50 [1]: 0.87 µg/mL (≈ 1.79 µM)
- %I [1]: 33%

Compound: COc1cccc(Cc2nsc(N3CCN(C(=O)c4ccc(F)cc4)C(C)C3)n2)c1 (centres unmarked) [Compound 123, 1-(4-fluorobenzoyl)-4-[3-(3-methoxybenzyl)-1,2,4-thiadiazol-5-yl]-2-methylpiperazine]
- EC50 [1]: 0.14 µg/mL (≈ 0.328 µM)
- %I [1]: 95%

Compound: Fc1ccc(Cc2nsc(N3CCN(Cc4ccccc4)CC3)n2)cc1 [Compound 113, 1-benzyl-4-[3-(4-fluorobenzyl)-1,2,4-thiadiazol-5-yl]piperazine]
- EC50 [1]: 1.54 µg/mL (≈ 4.18 µM)
- %I [1]: 65%

Compound: CC1CN(c2nc(Cc3ccc(Cl)cc3)ns2)CCN1C(=O)c1cccc(F)c1 (centres unmarked) [Compound 125, 1-(3-fluorobenzoyl)-4-[3-(4-chlorobenzyl)-1,2,4-thiadiazol-5-yl]-2-methylpiperazine]
- EC50 [1]: 0.16 µg/mL (≈ 0.371 µM)
- %I [1]: 68%

Compound: Cc1ccc(Cc2nsc(N3CCN(S(=O)(=O)C(C)C)CC3)n2)cc1 [Compound 85, 1-(isopropylsulfonyl)-4-[3-(4-methylbenzyl)-1,2,4-thiadiazol-5-yl]piperazine]
- EC50 [1]: 3.65 µg/mL (≈ 9.59 µM)
- %I [1]: 69%

Compound: 3-phenyl-N-{2-[4-[3-(4-fluorobenzyl)-1,2,4-thiadiazol-5-yl]piperazin-1-yl]ethyl}propanamide [Compound 112]
- EC50 (µg/mL) [1]: 0,55 µg/mL
- %I [1]: 91%

Compound: O=S(=O)(c1ccc2ccccc2c1)N1CCN(c2nc(Cc3ccc(Cl)cc3)ns2)CC1 [Compound 52, 1-[2-naphtylsulfonyl]-4-[3-(4-chlorobenzyl)-1,2,4-thiadiazol-5-yl]piperazine]
- EC50 [1]: 0.1 µg/mL (≈ 0.206 µM)
- %I [1]: 104%

Compound: Cc1ccc(Cc2nsc(N3CCN(S(=O)(=O)c4cccc5ccccc45)CC3)n2)cc1 [Compound 35, 1-[1-naphtylsulfonyl]-4-[3-(4-methylbenzyl)-1,2,4-thiadiazol-5-yl]piperazine]
- EC50 [1]: 0.0472 µg/mL (≈ 0.102 µM)
- %I [1]: 47%

Compound: O=C(c1ccc2c(c1)OCO2)N1CCCN(c2nc(Cc3ccc(F)cc3)ns2)CC1 [Compound 191, 1-(1,3-benzodioxol-5-ylcarbonyl)-4-[3-(4-fluorobenzyl)-1,2,4-thiadiazol-5-yl]-1,4-diazepane]
- %I [1]: 63%

Compound: O=C(c1cccc(F)c1)N1CCN(c2nc(Cc3ccc(Cl)cc3)ns2)CC1 [Compound 157, 1-(3-fluorobenzoyl)-4-[3-(4-chlorobenzyl)-1,2,4-thiadiazol-5-yl]piperazine]
- EC50 [1]: 1.7 µg/mL (≈ 4.08 µM)
- %I [1]: 70%

Compound: CCc1ccc(NC(=O)N2CCN(c3nc(Cc4ccc(F)cc4)ns3)CC2C)cc1 (centres unmarked) [Compound 11, N-(4-ethylphenyl)-4-[3-(4-fluorobenzyl)-1,2,4-thiadiazol-5-yl]-2-methylpiperazine-1-carboxamide]
- EC50 [1]: 0.69 µg/mL (≈ 1.57 µM)
- %I [1]: 73%

Compound: O=C(NCCN1CCN(c2nc(Cc3ccc(Cl)cc3)ns2)CC1)c1cccc(F)c1 [Compound 100, 3-fluoro-N-(2-[4-[3-(4-chlorobenzyl)-1,2,4-thiadiazof-5-yl]piperazin-1-yl]ethyl)benzamide]
- EC50 [1]: 1.79 µg/mL (≈ 3.89 µM)
- %I [1]: 75%
